According to US20240238213A1 (New York University in Abu Dhabi Corporation, priority 2021, published 2024):

Key:
[1] = tested on: STZ-induced diabetic rats; test: In vivo hypoglycemic effect; design: species or system Wistar rats; settings: subcutaneous injection, 5 IU kg^−1
[2] = tested on: non-everted mouse small intestine sac; settings: pure insulin; cited from earlier work
[3] = tested on: STZ-induced diabetic rats; settings: SC insulin 5 IU·kg^−1 or oral TTA-DFP-nCOF/Insulin 50 IU·kg^−1
[4] = tested on: STZ-induced diabetic rats; test: In vivo oral glucose tolerance test (OGTT); design: species or system Wistar rats; settings: glucose 2.5 g·kg^−1 by gavage 3 hours after treatment, 280 minutes; SC 5 IU·kg^−1 or oral 50 IU·kg^−1
[5] = tested on: R-HepG2 cells; test: Glucose consumption assay in insulin-resistant cells; format: cell-based, human; settings: R-HepG2, [Insulin]=10 μM
[6] = tested on: Hep-G2 cells; test: Insulin-FITC internalization in cells by confocal microscopy; format: cell-based, human; settings: 4 h incubation, [Insulin-FITC]=10 μM
[7] = tested on: STZ-induced diabetic rats; settings: rat, in vivo

insulin
persistence of the blood glucose reduction [1]: the effect was not sustained | time to marked reduction of the blood glucose level [1]: ≤ 1 h | Permeability (reported value) [2]: 8.02 μg·cm^−2 | HOMA-IR [3]: 0.6 (0.3) | HOMA-IS [3]: 50.4 (11.0) | glycaemia in OGTT [4]: decreases severely the glucose plasma level the two first hours after the glucose gavage | change of cellular glucose metabolism after 4 h ([5]; t=4 h): transient increase in cellular glucose metabolism | change of cellular glucose metabolism / insulin resistance after 24 h ([5]; t=24 h): statistically significant worsening | intracellular insulin-FITC signal / localization [6]: no detectable intracellular insulin-FITC signal | histopathology of liver and kidney [7]: commonly observed damages to the liver and kidney | histopathology of the kidney [7]: increase of the size of Bowman capsules, hypertrophy of the glomeruli and necrosis of the tubules | histopathology of the liver [7]: increase of big hepatocytes, a necrosis of hepatocytes and a narrowing in the sinusoids
